Test results taken from PMC11118832 (Biomolecules, 2024).
Square brackets hold non-standard residues; d marks the D form. Peptide text beside a SMILES is read from it. Phe(4-NH2) = Nc1ccc(C[C@H](N)C(=O)O)cc1; hLeu = CC(C)CC[C@H](N)C(=O)O; Nle = CCCC[C@H](N)C(=O)O; Orn = NCCC[C@H](N)C(=O)O

Each compound was assayed against T1, PD-1/PD-L1 (Homo sapiens, UniProt Q15116) (assay: In vitro time-resolved FRET PD-1/PD-L1 binding assay (CisBio kit)). Settings: CisBio PD-1/PD-L1 binding kit, TR FRET, 96-well, serial dilutions in triplicate; NI = no inhibition at maximum concentration tested (* 5 μM, ** 50 μM); read-out: EC50 (Supplementary Table S1; inhibition of PD-1/PD-L1 binding by in vitro TR-FRET assay).
T1 construct: this kit uses ectodomains of PD-1 and PD-L1 that are expressed with orthogonal fusion tags (Tag-1 and Tag-2); purchased CisBio (currently Perkin-Elmer, Bedford, MA)
T1 sequence (Q15116 25-170 limits assumed): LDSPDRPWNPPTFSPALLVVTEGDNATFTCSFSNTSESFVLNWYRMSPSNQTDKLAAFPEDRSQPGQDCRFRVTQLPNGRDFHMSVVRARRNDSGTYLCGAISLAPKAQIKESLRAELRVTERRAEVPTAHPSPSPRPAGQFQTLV
Experimental: Commercial PD-1/PD-L1 binding assay kit (CisBio, currently Perkin-Elmer, Bedford, MA) for time resolve fluorescent energy transfer (FRET) was used to assess peptides binding to PD-1. The assay for peptide screening was performed in a 96-well format (normal pressure), starting with 4-fold serial dilutions of each peptide in triplicate. No-peptide triplicate wells were used to assess fluorescent energy transfer in the absence of inhibition, and no-PD-1/PD-L1 triplicate wells were used to assess the background fluorescent energy transfer in the absence of PD-1/PD-L1 complexes. More detailed concentration dependences were obtained for selected peptides. Only freshly dissolved peptides were used in the assay. Various QSAR (quantitative structure activity relationship) hypotheses were tested by synthesizing batches of 10–12 peptides. In total, over one hundred candidates in ten iterations were screened for their ability to inhibit in vitro PD-1/PD-L1 binding using the commercial PD-1/PD-L1 binding assay kit (CisBio, currently Perkin-Elmer). Briefly, this kit uses ectodomains of PD-1 and PD-L1 that are expressed with orthogonal fusion tags (Tag-1 and Tag-2). It also includes two antibodies to selectively interact with these tags. The antibody against one tag is labeled with fluorescent moiety, which serves as a donor, while the other antibody is labeled with fluorescent moiety, which serves as an acceptor in fluorescent resonance energy transfer (FRET). When the complex is formed and probed with both anti-Tag-1 and anti-Tag-2 antibodies, donor and acceptor are sufficiently close, and FRET can be detected in a time-resolved (TR) manner. Inhibitors of PD-1/PD-L1 interactions prevent complex formation, leading to a decrease in TR FRET in a concentration-dependent manner, as shown in Figure 2 for four representative peptide inhibitors. Initial fourfold dilutions are exemplified by data for peptides B5.11 and B5.6 (panels A and B); examples of the more detailed follow-up concentration dependences are shown for peptides B2.4 and B2.22 (panels C and D). The potency of the inhibitors is then characterized by IC50, a concentration that inhibits TR FRET by 50%, allowing for a facile comparison of different inhibitors (Figure 2E).
`CCCC[C@H](NC(=O)[C@@H](NC(=O)[C@@H](N)CCCNC(=N)N)C(C)C)C(=O)N[C@H](C(=O)N[C@@H](Cc1c[nH]c2ccccc12)C(=O)N[C@H](C(=O)NCC(=O)N[C@@H](C)C(=O)N[C@@H](C)C(=O)N[C@@H](Cc1c[nH]c2ccccc12)C(=O)N[C@@H](CC(=O)O)C(=O)N[C@@H](Cc1ccc(O)cc1)C(=O)N[C@@H](CCCCN)C(=O)N[C@@H](Cc1ccc(O)cc1)C(=O)O)C(C)C)C(C)C` [B4.4] (H-RV[Nle]VWVGAAWDYKY-OH; N-terminus and C-terminus assumed) was tested, and the EC50 was greater than 5 µM.
`CCCC[C@H](NC(=O)[C@@H](NC(=O)[C@@H](N)CCCNC(=N)N)C(C)C)C(=O)N[C@H](C(=O)N[C@H](C(=O)N[C@H](C(=O)NCC(=O)N[C@@H](C)C(=O)N[C@@H](C)C(=O)N[C@@H](Cc1c[nH]c2ccccc12)C(=O)N[C@@H](CC(=O)O)C(=O)N[C@@H](Cc1ccc(O)cc1)C(=O)N[C@@H](CCCCN)C(=O)O)C(C)C)[C@@H](C)CC)C(C)C` [B4.5] (H-RV[Nle]VIVGAAWDYK-OH; N-terminus and C-terminus assumed) gave an EC50 greater than 5 µM.
In the case of `CCCC[C@H](NC(=O)[C@@H](NC(=O)[C@H](CCCNC(=N)N)NC(C)=O)C(C)C)C(=O)N[C@@H](CCCNC(=N)N)C(=O)N[C@H](C(=O)N[C@@H](CCC(=O)O)C(=O)NCC(=O)N[C@@H](C)C(=O)N[C@@H](C)C(=O)N[C@@H](Cc1c[nH]c2ccccc12)C(=O)N[C@@H](CC(=O)O)C(=O)N[C@@H](Cc1ccc(O)cc1)C(=O)N[C@@H](CCCCN)C(=O)N[C@@H](Cc1ccc(O)cc1)C(N)=O)[C@@H](C)CC` [B4.6] (Ac-RV[Nle]RIEGAAWDYKY-NH2), the EC50 is reported as greater than 5 µM.
`CCCC[C@H](NC(=O)[C@@H](NC(=O)[C@@H](N)CCCNC(=N)N)C(C)C)C(=O)N[C@H](C(=O)N[C@H](C(=O)N[C@H](C(=O)NCC(=O)N[C@@H](C)C(=O)N[C@@H](C)C(=O)N[C@@H](Cc1c[nH]c2ccccc12)C(=O)N[C@@H](CC(=O)O)C(=O)N[C@@H](Cc1ccc(O)cc1)C(=O)N[C@@H](CCCCN)C(=O)N[C@@H](Cc1ccc(O)cc1)C(=O)O)C(C)C)[C@@H](C)CC)C(C)C` [B4.7] (H-RV[Nle]VIVGAAWDYKY-OH; N-terminus and C-terminus assumed) showed an EC50 greater than 5 µM.
Work on `CCCC[C@H](NC(=O)[C@@H](NC(=O)[C@H](CCCC)NC(=O)[C@@H](NC(=O)[C@@H](N)CCCNC(=N)N)C(C)C)C(C)C)C(=O)N[C@H](C(=O)NCC(=O)N[C@@H](C)C(=O)N[C@@H](C)C(=O)N[C@@H](Cc1c[nH]c2ccccc12)C(=O)N[C@@H](CC(=O)O)C(=O)N[C@@H](Cc1ccc(O)cc1)C(=O)N[C@@H](CCCCN)C(=O)N[C@@H](Cc1ccc(O)cc1)C(=O)O)C(C)C` [B4.8] (H-RV[Nle]V[Nle]VGAAWDYKY-OH; N-terminus and C-terminus assumed) yielded an EC50 greater than 5 µM.
`CCCC[C@H](NC(=O)[C@@H](NC(=O)[C@H](CCCNC(=N)N)NC(C)=O)C(C)C)C(=O)N[C@H](C(=O)N[C@H](C(=O)N[C@H](C(=O)NCC(=O)N[C@@H](C)C(=O)N[C@@H](CCCN)C(=O)N[C@@H](Cc1c[nH]c2ccccc12)C(=O)N[C@@H](CC(=O)O)C(=O)N[C@@H](Cc1ccc(O)cc1)C(=O)N[C@@H](CCCCN)C(=O)N[C@@H](Cc1ccc(O)cc1)C(N)=O)C(C)C)[C@@H](C)CC)C(C)C` [B4.9] (Ac-RV[Nle]VIVGA[Orn]WDYKY-NH2) gave an EC50 of 5 µM.
For `CCCC[C@H](NC(=O)[C@@H](NC(=O)[C@@H](N)CCCNC(=N)N)C(C)C)C(=O)N[C@H](C(=O)N[C@H](C(=O)N[C@H](C(=O)NCC(=O)N[C@@H](C)C(=O)N[C@@H](C)C(=O)N[C@@H](Cc1c[nH]c2ccccc12)C(=O)N[C@@H](CC(=O)O)C(=O)N[C@@H](Cc1ccc(N)cc1)C(=O)N[C@@H](CCCCN)C(=O)N[C@@H](Cc1ccc(O)cc1)C(=O)O)C(C)C)[C@@H](C)CC)C(C)C` [B4.10] (H-RV[Nle]VIVGAAWD[Phe(4-NH2)]KY-OH; N-terminus and C-terminus assumed), the EC50 was greater than 5 µM.
Compound `CCCC[C@H](NC(C)=O)C(=O)N[C@H](C(=O)N[C@@H](Cc1c[nH]c2ccccc12)C(=O)N[C@H](C(=O)NCC(=O)N[C@@H](C)C(=O)N[C@@H](C)C(=O)N[C@@H](Cc1c[nH]c2ccccc12)C(=O)N[C@@H](CC(=O)O)C(=O)N[C@@H](Cc1ccc(O)cc1)C(=O)N[C@@H](CCCCN)C(=O)N[C@@H](Cc1ccc(O)cc1)C(N)=O)C(C)C)C(C)C` [B4.11] (Ac-[Nle]VWVGAAWDYKY-NH2) has an EC50 greater than 5 µM.
Work on `CCCC[C@H](NC(C)=O)C(=O)N[C@H](C(=O)N[C@@H](Cc1c[nH]c2ccccc12)C(=O)N[C@H](C(=O)NCC(=O)N[C@@H](C)C(=O)N[C@@H](C)C(=O)N[C@@H](Cc1c[nH]c2ccccc12)C(=O)N[C@@H](CC(=O)O)C(=O)N[C@@H](CCCNC(=N)N)C(=O)N[C@@H](CCCCN)C(=O)N[C@@H](Cc1ccc(O)cc1)C(N)=O)C(C)C)C(C)C` [B4.12] (Ac-[Nle]VWVGAAWDRKY-NH2) yielded an EC50 greater than 5 µM.
Work on `CCCC[C@H](N)C(=O)N[C@H](C(=O)N[C@@H](Cc1c[nH]c2ccccc12)C(=O)N[C@H](C(=O)NCC(=O)N[C@@H](C)C(=O)N[C@@H](C)C(=O)N[C@@H](Cc1c[nH]c2ccccc12)C(=O)N[C@@H](CC(=O)O)C(=O)N[C@@H](CCCNC(=N)N)C(=O)N[C@@H](CCCCN)C(=O)N[C@@H](Cc1ccc(O)cc1)C(=O)O)C(C)C)C(C)C` [B4.13] (H-[Nle]VWVGAAWDRKY-OH; N-terminus and C-terminus assumed) yielded an EC50 greater than 5 µM.
Work on `CCCC[C@H](N)C(=O)N[C@H](C(=O)N[C@H](C(=O)N[C@H](C(=O)NCC(=O)N[C@@H](C)C(=O)N[C@@H](C)C(=O)N[C@@H](Cc1c[nH]c2ccccc12)C(=O)N[C@@H](CC(=O)O)C(=O)N[C@@H](Cc1ccc(O)cc1)C(=O)N[C@@H](CCCCN)C(=O)N[C@@H](CCCNC(=N)N)C(=O)O)C(C)C)[C@@H](C)CC)C(C)C` [B4.14] (H-[Nle]VIVGAAWDYKR-OH; N-terminus and C-terminus assumed) yielded an EC50 greater than 5 µM.
For `CCCC[C@H](N)C(=O)N[C@H](C(=O)N[C@@H](Cc1c[nH]c2ccccc12)C(=O)N[C@H](C(=O)NCC(=O)N[C@@H](C)C(=O)N[C@@H](C)C(=O)N[C@@H](Cc1c[nH]c2ccccc12)C(=O)N[C@@H](CC(=O)O)C(=O)N[C@@H](Cc1ccc(O)cc1)C(=O)N[C@@H](CCCCN)C(=O)N[C@@H](Cc1ccc(O)cc1)C(=O)O)C(C)C)C(C)C` [B4.15] (H-[Nle]VWVGAAWDYKY-OH; N-terminus and C-terminus assumed), the EC50 was greater than 5 µM.
For `CC[C@H](C)[C@H](NC(=O)[C@H](CCC(C)C)NC(=O)[C@H](CC(=O)O)NC(C)=O)C(=O)N[C@H](C(=O)NCC(=O)N[C@@H](C)C(=O)N[C@@H](C)C(=O)N[C@@H](Cc1c[nH]c2ccccc12)C(=O)N[C@@H](CC(=O)O)C(=O)N[C@@H](Cc1ccc(O)cc1)C(=O)N[C@@H](CCCCN)C(=O)N[C@@H](Cc1ccc(O)cc1)C(N)=O)C(C)C` [B5.3] (Ac-D[hLeu]IVGAAWDYKY-NH2), the EC50 was greater than 5 µM.
`CCCC[C@H](NC(C)=O)C(=O)N[C@H](C(=O)N[C@@H](CC(=O)O)C(=O)N[C@H](C(=O)N[C@H](C(=O)N[C@H](C(=O)NCC(=O)N[C@@H](C)C(=O)N[C@@H](C)C(=O)N[C@@H](Cc1c[nH]c2ccccc12)C(=O)N[C@@H](CC(=O)O)C(=O)N[C@@H](Cc1ccc(O)cc1)C(=O)N[C@@H](CCCCN)C(=O)N[C@@H](Cc1ccc(O)cc1)C(N)=O)C(C)C)[C@@H](C)CC)C(C)C)C(C)C` [B5.5] (Ac-[Nle]VDVIVGAAWDYKY-NH2) gave an EC50 greater than 5 µM.
